How the values were obtained:
[1] = target: CDK2/Cyclin E1 (Homo sapiens, UniProt P24941); test: CDK2/Cyclin E1 Biochemical Assay (TR-FRET), 0.060 mM ATP; conditions: 0.15 μM Rb (Ser780)-biotin substrate, pH7.0, 60 min preincubation, 120 min reaction, room temperature
How it was run: (§1)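 Phosphorylation of a biotin-tagged Rb Ser780 peptide (0.15 μM) is measured by time-resolved FRET between a europium-labelled phospho-specific antibody and streptavidin-XL665. Compound (0–10 μM) sits with enzyme 60 min first; the kinase reaction then proceeds 120 min at room temperature, pH 7.0.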

[2] = target: CDK1/Cyclin B1 (Homo sapiens, UniProt P06493); test: CDK1/Cyclin B1 Biochemical Assay (TR-FRET), 0.015 mM ATP; conditions: 0.15 μM Rb (Ser780)-biotin substrate, pH7.0, 60 min preincubation, 120 min reaction, room temperature
Chain of CDK1/Cyclin B1 (P06493 whole entry): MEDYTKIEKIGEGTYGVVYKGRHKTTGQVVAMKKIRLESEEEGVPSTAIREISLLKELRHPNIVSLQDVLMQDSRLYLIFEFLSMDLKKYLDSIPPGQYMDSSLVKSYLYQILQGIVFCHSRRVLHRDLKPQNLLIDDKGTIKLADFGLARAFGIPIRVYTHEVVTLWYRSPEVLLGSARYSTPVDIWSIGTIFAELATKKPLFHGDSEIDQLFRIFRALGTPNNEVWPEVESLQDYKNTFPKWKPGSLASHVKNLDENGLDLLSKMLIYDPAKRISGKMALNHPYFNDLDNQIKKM
Chain of CDK1/Cyclin B1 (P14635 whole entry partner): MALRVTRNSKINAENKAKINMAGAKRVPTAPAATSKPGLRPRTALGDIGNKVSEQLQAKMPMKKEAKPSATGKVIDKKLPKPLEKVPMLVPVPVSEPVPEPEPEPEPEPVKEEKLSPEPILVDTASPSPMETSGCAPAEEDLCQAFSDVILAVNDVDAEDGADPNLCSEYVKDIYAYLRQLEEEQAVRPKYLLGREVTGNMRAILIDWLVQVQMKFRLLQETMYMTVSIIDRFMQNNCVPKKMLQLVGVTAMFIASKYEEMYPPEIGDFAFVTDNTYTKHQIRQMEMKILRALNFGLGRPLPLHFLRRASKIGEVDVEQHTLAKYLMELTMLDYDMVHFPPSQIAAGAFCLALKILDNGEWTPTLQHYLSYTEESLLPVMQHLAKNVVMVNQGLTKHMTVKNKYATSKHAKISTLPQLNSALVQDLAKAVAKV
How it was run: as §1

Compound | IC50 [1] | IC50 [2]
CC(NC(=O)O[C@H]1CC[C@@H](c2cc(Nc3ccc4c(c3F)CN(C3CC3)S4(=O)=O)n[nH]2)C1)C1COC1 (relative stereo) [Example 357, cis-3-(3-((2-cyclopropyl-4-fluoro-1,1-dioxido-2,3-dihydrobenzo[d]isothiazol-5-yl)amino)-1H-pyrazol-5-yl)cyclopentyl(1-(oxetan-3-yl)ethyl)carbamate] | 23 nM | 817 nM
CN1Cc2c(ccc(Nc3cc([C@@H]4CC[C@H](OC(=O)NC5(C)COC5)C4)[nH]n3)c2F)S1(=O)=O (single isomer, unassigned) [Example 352a, cis-3-(3-((4-fluoro-2-methyl-1,1-dioxido-2,3-dihydrobenzo[d]isothiazol-5-yl)amino)-1H-pyrazol-5-yl)cyclopentyl(3-methyloxetan-3-yl)carbamate] | 14 nM | 365 nM
CN1Cc2c(ccc(Nc3cc([C@@H]4CC[C@H](OC(=O)NC5(C)CCOC5)C4)[nH]n3)c2F)S1(=O)=O (relative stereo) [Example 335, cis-3-(3-((4-fluoro-2-methyl-1,1-dioxido-2,3-dihydrobenzo[d]isothiazol-5-yl)amino)-1H-pyrazol-5-yl)cyclopentyl(3-methyltetrahydrofuran-3-yl)carbamate] | 5.1 nM | 351 nM
CN1Cc2c(ccc(Nc3cc([C@@H]4CC[C@H](OC(=O)NC5(C)CC5)C4)[nH]n3)c2F)S1(=O)=O (relative stereo) [Example 124, cis-3-(3-((4-fluoro-2-methyl-1,1-dioxido-2,3-dihydrobenzo[d]isothiazol-5-yl)amino)-1H-pyrazol-5-yl)cyclopentyl(1-methylcyclopropyl)carbamate] | 1.6 nM | 120 nM
CCCNC(=O)O[C@H]1CC[C@@H](c2cc(Nc3ccc4c(c3F)CS(=O)(=O)N4CCO)n[nH]2)C1 (single isomer, unassigned) [Example 272b, cis-3-(3-((4-fluoro-1-(2-hydroxyethyl)-2,2-dioxido-1,3-dihydrobenzo[c]isothiazol-5-yl)amino)-1H-pyrazol-5-yl)cyclopentyl propylcarbamate] | 3 nM | 59 nM
O=C(O[C@H]1CC[C@@H](c2cc(Nc3ccc4c(c3)CS(=O)(=O)N4)n[nH]2)C1)N1CCOCC1 (relative stereo) [Example 382, cis-3-(3-((2,2-dioxido-1,3-dihydrobenzo[c]isothiazol-5-yl)amino)-1H-pyrazol-5-yl)cyclopentyl morpholine-4-carboxylate] | 9.7 nM | 214 nM
CCCNC(=O)O[C@H]1CC[C@@H](c2cc(Nc3ccc4c(c3Cl)CNS4(=O)=O)n[nH]2)C1 (racemic) [Example 39, cis-3-(3-((4-chloro-1,1-dioxido-2,3-dihydrobenzo[d]isothiazol-5-yl)amino)-1H-pyrazol-5-yl)cyclopentyl propylcarbamate] | 15 nM | 374 nM
O=C(NC1CCCC1)O[C@@H]1CC[C@H](c2cc(Nc3ccc4c(c3F)CS(=O)(=O)N4)n[nH]2)C1 (single isomer, unassigned) [Example 400a] | 6.9 nM | 154 nM
CN1c2ccc(Nc3cc([C@@H]4CC[C@H](OC(=O)NC5(C)COC5)C4)[nH]n3)cc2CS1(=O)=O (relative stereo) [Example 234, cis-3-(3-((1-methyl-2,2-dioxido-1,3-dihydrobenzo[c]isothiazol-5-yl)amino)-1H-pyrazol-5-yl)cyclopentyl(3-methyloxetan-3-yl)carbamate] | 4.2 nM | 67 nM
O=C(NC1CC2(CCC2)C1)O[C@H]1CC[C@@H](c2cc(Nc3ccc4c(c3F)CNS4(=O)=O)n[nH]2)C1 (relative stereo) [Example 151, cis-3-(3-((4-fluoro-1,1-dioxido-2,3-dihydrobenzo[d]isothiazol-5-yl)amino)-1H-pyrazol-5-yl)cyclopentyl spiro[3.3]heptan-2-ylcarbamate] | 80 nM | 668 nM
CCCNC(=O)O[C@H]1CC[C@@H](c2cc(Nc3ccc4c(c3F)C(C)NS4(=O)=O)n[nH]2)C1 (single isomer, unassigned) [Example 53c, cis-3-(3-((4-fluoro-3-methyl-1,1-dioxido-2,3-dihydrobenzo[d]isothiazol-5-yl)amino)-1H-pyrazol-5-yl)cyclopentyl propylcarbamate] | 15 nM | 686 nM
CN1Cc2c(ccc(Nc3cc([C@@H]4CC[C@H](OC(=O)NC5(C)COC5)C4)[nH]n3)c2F)S1(=O)=O (single isomer, unassigned) [Example 352b, cis-3-(3-((4-fluoro-2-methyl-1,1-dioxido-2,3-dihydrobenzo[d]isothiazol-5-yl)amino)-1H-pyrazol-5-yl)cyclopentyl(3-methyloxetan-3-yl)carbamate] | 7 nM | 651 nM
CC[C@H](C)NC(=O)O[C@H]1CC[C@@H](c2cc(Nc3ccc4c(c3F)CN(C3CC3)S4(=O)=O)n[nH]2)C1 (single isomer, unassigned) [Example 117a] | 2.5 nM | 326 nM
C[C@H]1[C@H](O)CN1C(=O)O[C@H]1CC[C@@H](c2cc(Nc3ccc4c(c3F)CNS4(=O)=O)n[nH]2)C1 (relative stereo) [Example 145, cis-3-(3-((4-fluoro-1,1-dioxido-2,3-dihydrobenzo[d]isothiazol-5-yl)amino)-1H-pyrazol-5-yl)cyclopentyl(2S,3R)-3-hydroxy-2-methylazetidine-1-carboxylate] | 14 nM | 267 nM
CC(C)NC(=O)O[C@H]1CC[C@@H](c2cc(Nc3ccc4c(c3)CS(=O)(=O)N4C(C)C3CCOC3)n[nH]2)C1 (relative stereo) [Example 218, cis-3-(3-((2,2-dioxido-1-(1-(tetrahydrofuran-3-yl)ethyl)-1,3-dihydrobenzo[c]isothiazol-5-yl)amino)-1H-pyrazol-5-yl)cyclopentyl isopropylcarbamate] | 112 nM | 999 nM
CC(C)NC(=O)O[C@H]1CC[C@@H](c2cc(Nc3ccc4c(c3)C(C)S(=O)(=O)N4C)n[nH]2)C1 (relative stereo) [Example 207, cis-3-(3-((1,3-dimethyl-2,2-dioxido-1,3-dihydrobenzo[c]isothiazol-5-yl)amino)-1H-pyrazol-5-yl)cyclopentyl isopropylcarbamate] | 6.6 nM | 35 nM
CC(C)NC(=O)O[C@H]1CC[C@@H](c2cc(Nc3ccc4c(c3F)CN(CCCN(C)C)S4(=O)=O)n[nH]2)C1 (relative stereo) [Example 73, cis-3-(3-((2-(3-(dimethylamino)propyl)-4-fluoro-1,1-dioxido-2,3-dihydrobenzo[d]isothiazol-5-yl)amino)-1H-pyrazol-5-yl)cyclopentyl isopropylcarbamate] | 7.9 nM | 583 nM

The next lines start with the values.

IC50 [1] | IC50 [2] | Compound
128 nM | 4470 nM | Cc1cc2c(cc1Nc1cc([C@@H]3CC[C@H](OC(=O)NC(C)C)C3)[nH]n1)CS(=O)(=O)N2 (relative stereo) [Example 241, 3-(3-((6-methyl-2,2-dioxido-1,3-dihydrobenzo[c]isothiazol-5-yl)amino)-1H-pyrazol-5-yl)cyclopentyl isopropylcarbamate]
3.8 nM | 350 nM | CC(C)NC(=O)O[C@H]1CC[C@@H](c2cc(Nc3ccc4c(c3F)CN(C3CCC3O)S4(=O)=O)n[nH]2)C1 (single isomer, unassigned) [Example 103, cis-3-(3-((4-fluoro-2-(2-hydroxycyclobutyl)-1,1-dioxido-2,3-dihydrobenzo[d]isothiazol-5-yl)amino)-1H-pyrazol-5-yl)cyclopentyl isopropylcarbamate]
13 nM | 279 nM | CC(C)NC(=O)O[C@H]1CC[C@@H](c2cc(Nc3ccc4c(c3Cl)CNS4(=O)=O)n[nH]2)C1 (single isomer, unassigned) [Example 38b, cis-3-(3-((4-chloro-1,1-dioxido-2,3-dihydrobenzo[d]isothiazol-5-yl)amino)-1H-pyrazol-5-yl)cyclopentyl isopropylcarbamate]
2.6 nM | 56 nM | CC(C)NC(=O)O[C@@H]1CC[C@H](c2cc(Nc3ccc4c(c3)CS(=O)(=O)N4C)n[nH]2)C1 (single isomer, unassigned) [Example 220a]
3.2 nM | 172 nM | CC(C)NC(=O)O[C@H]1CC[C@@H](c2cc(Nc3ccc4c(c3F)CS(=O)(=O)N4CCO)n[nH]2)C1 (single isomer, unassigned) [Example 271a, cis-3-(3-((4-fluoro-1-(2-hydroxyethyl)-2,2-dioxido-1,3-dihydrobenzo[c]isothiazol-5-yl)amino)-1H-pyrazol-5-yl)cyclopentyl isopropylcarbamate]
9.3 nM | 191 nM | COCCN1Cc2ccc(Nc3cc([C@@H]4CC[C@H](OC(=O)NC(C)C)C4)[nH]n3)c(F)c2S1(=O)=O (relative stereo) [Example 191, cis-3-(3-((7-fluoro-2-(2-methoxyethyl)-1,1-dioxido-2,3-dihydrobenzo[d]isothiazol-6-yl)amino)-1H-pyrazol-5-yl)cyclopentyl isopropylcarbamate]
5.7 nM | 244 nM | CC(C)NC(=O)O[C@H]1CC[C@@H](c2cc(Nc3ccc4c(c3F)CN(C(C)C3COC3)S4(=O)=O)n[nH]2)C1 (relative stereo) [Example 104, cis-3-(3-((4-fluoro-2-(1-(oxetan-3-yl)ethyl)-1,1-dioxido-2,3-dihydrobenzo[d]isothiazol-5-yl)amino)-1H-pyrazol-5-yl)cyclopentyl isopropylcarbamate]
1260 nM | > 10000 nM | CC(C)NC(=O)O[C@H]1CC[C@@H](c2cc(Nc3cc4c(cc3OC(F)(F)F)S(=O)(=O)NC4)n[nH]2)C1 (relative stereo) [Example 28, cis-3-(3-((1,1-dioxido-6-(trifluoromethoxy)-2,3-dihydrobenzo[d]isothiazol-5-yl)amino)-1H-pyrazol-5-yl)cyclopentyl isopropylcarbamate]
